Assay results as given in US20250127813A1, “COMBINATION DRUG” (OTSUKA PHARMACEUTICAL CO., LTD., priority 2021, published 2025).
Entries after “also recorded” stand apart in the source; their conditions may differ.

Tested on: NALM6-luc2
Procedure: 6-week-old NOG mice produced by In-Vivo Science Co., Ltd., were obtained, and tumor cells were intravenously transplanted into the mice at 7 weeks of age to prepare tumor-bearing mice. The day before the transplantation, busulfex (BSF) was intraperitoneally administered at 20 mg/kg. During the breeding period, the mice were housed with 5 mice per group and bred in a P2A breeding room set to a temperature of 24° C. (actual measurement: 19.7 to 25.0° C.), humidity of 50% (actual measurement: 38.6 to 58.5%), and illumination of 12 hours/day (8:00 a.m. to 8:00 p.m.). During the breeding period, the mice were allowed free access to radiation-sterilized solid feed for mice (CL-2, produced by Clea Japan, Inc.) and autoclave-sterilized tap water placed in a water bottle.
CD19 CAR-T cells were intravenously administered once according to the group constitution on the same day as grouping. The IAP antagonist also started to be administered on the same day as grouping and was orally or intravenously administered according to the group constitution table.
The evaluation period was set to 3 to 4 weeks. Grouping and pharmacological evaluation were performed based on tumor luminescence values as determined by IVIS (trademark). Luminescence value measurement by IVIS (trademark) and body weight measurement were performed twice a week.
For NALM6-luc2, after resuspension, a portion of the cell suspension was taken, dead cells were stained with AOPI Staining Solution, and the number of viable cells was counted with a blood cell measuring device. A cell suspension was prepared by diluting the cells with RPMI 1640 to 1×10^7 cells/mL, based on the measurement results of viable cell count of the cells. Similarly, in a low tumor volume system, a cell suspension was prepared by diluting the cells with serum-free RPMI 1640 to achieve a concentration of 1×10^6 cells/mL.
After the mice were retained using a retainer, a cell suspension was transplanted at 1×10^6 cells/0.1 mL/body using a 27G Myjector (1 mL, produced by Terumo Corporation) to the tail vein of each mouse with no anesthesia. In the low tumor volume system, a cell suspension at 1×10^5 cells/0.1 mL/body was transplanted.
In accordance with the dosing regimen shown in FIG. 6, NALM6-luc2 was transplanted the day after treating the […] with busulfex. On the third day after the transplantation, luminescence values were measured using the IVIS (trademark) Lumina X5 In-Vivo imaging system (produced by PerkinElmer, Co., Ltd.). Using the luminous values as an indicator and using SAS software R9.4 (produced by SAS Institute Japan), the mice were divided into groups of 5 mice each by the stratified random sampling method.
1) A suspension of CD19 CAR-T cells was administered to the tail vein at the time of grouping. For the dosage, the number of viable CD19 CAR-T cells was counted and a cell suspension prepared according to the group constitution table was administered once at 0.1 mL/body. For the administration, a Myjector syringe with a 27G needle was used.
5) Birinapant was intraperitoneally administered at a dose of 10 mL/kg according to the group composition table. Tolinapant, LCL161, and AT406 were orally administered at a dose of 10 mL/kg according to the group composition table using a sonde in the same manner. For intraperitoneal administration, an insulin syringe with a 26G needle was used in place of the sonde. For oral administration, a needle was used in place of the sonde to administer each drug.
VivoGlo™-luciferin (produced by Promega) was dissolved in D-PBS(−) to achieve a concentration of 30 mg/mL and then cryopreserved at −20° C. under light-shielded conditions. On the day of measurement, dissolved VivoGlo™-luciferin was diluted with an equivalent amount of D-PBS(−) and stored at room temperature under light-shielded conditions until use for testing. Based on the body weight measured in advance, VivoGlo™-luciferin was intraperitoneally administered in a volume of 10 mL/kg.

[1] = LCL161 30 mg/kg qw po + CD19 CAR-T 1×10^5 cells/body iv

SMILES: CN[C@@H](C)C(=O)N[C@H]1CN(C(=O)CC(C)C)CC[C@H]2CC[C@@H](C(=O)NC(c3ccccc3)c3ccccc3)N2C1=O [AT406, reference compound]
- effect of AT406 + 1×10^5 cells CD19 CAR-T compared with 1×10^6 cells CD19 CAR-T alone (AT406 100 mg/kg qd po + CD19 CAR-T 1×10^5 cells/body iv): an effect equivalent to the effect achieved by 1×10^6 cells of CD19 CAR-T alone was observed on day 14 and thereafter
- combination effect of AT406 and CD19 CAR-T (AT406 100 mg/kg qd po + CD19 CAR-T 1×10^5 cells/body iv, 100 mg/kg): a combination effect was observed on day 10 and thereafter; also recorded: showed a combination effect with CD19 CAR-T; also recorded: a combination effect profile similar to that of tolinapant
- efficacy of AT406 administered alone (AT406 alone, 100 mg/kg, daily oral administration): showed no efficacy

SMILES: CN[C@@H](C)C(=O)N[C@H](C(=O)N1CCC[C@H]1c1nc(C(=O)c2ccc(F)cc2)cs1)C1CCCCC1 [LCL161, reference compound]
- death of mice under LCL161 alone (LCL161 30 mg/kg orally twice a week): at least half of the mice died
- effect of LCL161 + 1×10^5 cells CD19 CAR-T compared with 1×10^6 cells CD19 CAR-T alone [1]: an effect equivalent to the effect achieved by using 1×10^6 cells of CD19 CAR-T alone was observed on day 14 and thereafter
- highest efficacy of combined use of LCL161 compared with combined use of tolinapant [1]: lower than the efficacy achieved by the combined use of tolinapant
- combination effect of LCL161 and CD19 CAR-T (LCL161 30 mg/kg qw po + CD19 CAR-T 1×10^5 cells/body iv, 30 mg/kg): a significant combination effect was observed on day 7 and thereafter; also recorded: showed a combination effect with CD19 CAR-T
- toxicity of LCL161 (death, weight loss) in the combination test (LCL161 30 mg/kg qw po, combination test with CD19 CAR-T, 30 mg/kg): highly toxic; also recorded: at least half of the animals died due to LCL161; also recorded: showed such toxicity as to confirm weight loss and death
- efficacy of LCL161 administered alone (LCL161 alone, 30 mg/kg orally twice a week): no effects were exhibited

SMILES: CC[C@H](NC(=O)[C@H](C)NC)C(=O)N1C[C@@H](O)C[C@H]1Cc1c(-c2[nH]c3cc(F)ccc3c2C[C@@H]2C[C@H](O)CN2C(=O)[C@H](CC)NC(=O)[C@H](C)NC)[nH]c2cc(F)ccc12 [Birinapant, reference compound]
- combination effect of birinapant and CD19 CAR-T compared to CD19 CAR-T alone (birinapant 12 mg/kg q3-4d ip + CD19 CAR-T 1×10^5 cells/body iv): did not increase antitumor effects
- efficacy of birinapant administered alone (birinapant alone, 12 mg/kg, intraperitoneal administration twice a week): showed no efficacy
